The structures appear in SMILES notation.

In assay [1] the target is Epidermal growth factor receptor (Homo sapiens, UniProt P00533). Briefly: (§1) Selectivity interaction (SelectScreen profiling (Invitrogen)) EUB0000607a EGFR. The note with it: at 2 µM.
In assay [2] the test system is Epidermal growth factor receptor (Homo sapiens), P00533 [L861Q]. The assay is described as §1. The following applies: at 2 µM.
Assay [3] has as its system Epidermal growth factor receptor (Homo sapiens), P00533 [T790M]. The assay is described as §1. The following applies: at 2 µM.
Assay [4] has as its system Epidermal growth factor receptor (Homo sapiens), P00533 [L858R]. The assay is described as §1. The following applies: at 2 µM.
Assay [5] addresses T1, NUAK family SNF1-like kinase 2 (Homo sapiens) (UniProt Q9H093).
T1 sequence (whole entry): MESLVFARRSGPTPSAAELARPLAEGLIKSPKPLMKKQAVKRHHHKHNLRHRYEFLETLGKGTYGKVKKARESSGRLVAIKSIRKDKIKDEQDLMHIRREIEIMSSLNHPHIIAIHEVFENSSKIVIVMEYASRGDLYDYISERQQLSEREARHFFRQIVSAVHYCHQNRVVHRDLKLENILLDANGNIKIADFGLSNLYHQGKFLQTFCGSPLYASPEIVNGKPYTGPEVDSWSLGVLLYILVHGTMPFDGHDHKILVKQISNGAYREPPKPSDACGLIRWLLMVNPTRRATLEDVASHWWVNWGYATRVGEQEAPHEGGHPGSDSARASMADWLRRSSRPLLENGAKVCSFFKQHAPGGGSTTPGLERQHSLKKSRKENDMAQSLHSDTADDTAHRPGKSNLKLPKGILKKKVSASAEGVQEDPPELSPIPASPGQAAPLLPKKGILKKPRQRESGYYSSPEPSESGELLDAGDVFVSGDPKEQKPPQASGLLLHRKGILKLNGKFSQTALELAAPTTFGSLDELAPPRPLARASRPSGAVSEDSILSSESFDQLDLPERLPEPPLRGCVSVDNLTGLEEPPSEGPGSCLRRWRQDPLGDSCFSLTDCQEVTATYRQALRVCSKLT
The following applies: at 10 µM.

Assay [6] addresses Serine/threonine-protein kinase N2 (Homo sapiens, UniProt Q16513). The following applies: at 10 µM.
Assay [7] deals with Cyclin-dependent kinase 11B (Homo sapiens) (UniProt P21127). Put plainly: Selectivity interaction (KinomeScan (DiscoverX)) EUB0000229b CDK11B. The note with it: at 10 µM.
Assay [8] concerns the target Homeodomain-interacting protein kinase 2 (Homo sapiens, UniProt Q9H2X6). Put plainly: Selectivity interaction (KinomeScan (DiscoverX)) EUB0001079a HIPK2. The following applies: at 1 µM.
The target of assay [9] is Serine/threonine-protein kinase SIK3 (Homo sapiens) (UniProt Q9Y2K2). Put plainly: Selectivity interaction (KinomeScan (DiscoverX)) EUB0001079a SIK3. The following applies: at 1 µM.
In assay [10] the target is Tyrosine-protein kinase ABL1 (Homo sapiens, UniProt P00519). Briefly: Selectivity interaction (ActivX KiNativ screen (ex vivo kinase selectivity in human PBMCs)) EUB0001619a ABL1. It counts as cell-based. The following applies: PBMC, at 1 µM.
Assay [11] concerns the target T2, Mitogen-activated protein kinase kinase kinase kinase 2 (Homo sapiens) (UniProt Q12851).
T2 sequence (whole entry): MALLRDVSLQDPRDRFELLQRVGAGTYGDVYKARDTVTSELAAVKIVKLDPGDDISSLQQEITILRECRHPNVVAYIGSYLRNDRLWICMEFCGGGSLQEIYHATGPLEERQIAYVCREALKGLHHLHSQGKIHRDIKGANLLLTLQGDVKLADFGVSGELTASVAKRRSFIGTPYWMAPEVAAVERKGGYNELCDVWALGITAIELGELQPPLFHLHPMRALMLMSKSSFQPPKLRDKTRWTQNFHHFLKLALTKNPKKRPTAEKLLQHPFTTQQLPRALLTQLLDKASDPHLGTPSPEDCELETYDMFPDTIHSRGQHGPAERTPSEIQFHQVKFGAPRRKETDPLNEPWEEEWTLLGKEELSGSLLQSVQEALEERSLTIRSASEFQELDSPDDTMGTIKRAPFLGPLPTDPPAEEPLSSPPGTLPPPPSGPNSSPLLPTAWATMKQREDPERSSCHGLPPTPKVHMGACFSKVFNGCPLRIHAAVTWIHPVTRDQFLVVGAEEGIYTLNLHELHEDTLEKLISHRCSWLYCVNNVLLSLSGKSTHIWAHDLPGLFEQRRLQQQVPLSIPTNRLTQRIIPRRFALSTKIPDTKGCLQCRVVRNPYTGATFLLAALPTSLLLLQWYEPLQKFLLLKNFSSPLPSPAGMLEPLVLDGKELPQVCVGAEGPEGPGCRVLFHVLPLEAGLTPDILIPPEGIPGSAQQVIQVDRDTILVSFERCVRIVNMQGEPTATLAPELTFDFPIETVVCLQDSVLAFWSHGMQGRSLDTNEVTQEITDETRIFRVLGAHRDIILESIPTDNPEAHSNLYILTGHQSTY
Briefly: Selectivity interaction (ActivX KiNativ screen (ex vivo kinase selectivity in human PBMCs)) EUB0001619a MAP4K2. The format is cell-based. The note with it: PBMC, at 1 µM.

Assay [12] has as its target Calcium/calmodulin-dependent protein kinase kinase 2 (Homo sapiens) (UniProt Q96RR4). The note with it: at 10 µM.
The target of assay [13] is Mitogen-activated protein kinase kinase kinase 11 (Homo sapiens) (UniProt Q16584). Briefly: Selectivity interaction (KinomeScan (DiscoverX)) EUB0000695a MAP3K11. The note with it: at 100 nM.
Chain of Mitogen-activated protein kinase kinase kinase 11 (Homo sapiens) (Q16584 whole entry, looked up): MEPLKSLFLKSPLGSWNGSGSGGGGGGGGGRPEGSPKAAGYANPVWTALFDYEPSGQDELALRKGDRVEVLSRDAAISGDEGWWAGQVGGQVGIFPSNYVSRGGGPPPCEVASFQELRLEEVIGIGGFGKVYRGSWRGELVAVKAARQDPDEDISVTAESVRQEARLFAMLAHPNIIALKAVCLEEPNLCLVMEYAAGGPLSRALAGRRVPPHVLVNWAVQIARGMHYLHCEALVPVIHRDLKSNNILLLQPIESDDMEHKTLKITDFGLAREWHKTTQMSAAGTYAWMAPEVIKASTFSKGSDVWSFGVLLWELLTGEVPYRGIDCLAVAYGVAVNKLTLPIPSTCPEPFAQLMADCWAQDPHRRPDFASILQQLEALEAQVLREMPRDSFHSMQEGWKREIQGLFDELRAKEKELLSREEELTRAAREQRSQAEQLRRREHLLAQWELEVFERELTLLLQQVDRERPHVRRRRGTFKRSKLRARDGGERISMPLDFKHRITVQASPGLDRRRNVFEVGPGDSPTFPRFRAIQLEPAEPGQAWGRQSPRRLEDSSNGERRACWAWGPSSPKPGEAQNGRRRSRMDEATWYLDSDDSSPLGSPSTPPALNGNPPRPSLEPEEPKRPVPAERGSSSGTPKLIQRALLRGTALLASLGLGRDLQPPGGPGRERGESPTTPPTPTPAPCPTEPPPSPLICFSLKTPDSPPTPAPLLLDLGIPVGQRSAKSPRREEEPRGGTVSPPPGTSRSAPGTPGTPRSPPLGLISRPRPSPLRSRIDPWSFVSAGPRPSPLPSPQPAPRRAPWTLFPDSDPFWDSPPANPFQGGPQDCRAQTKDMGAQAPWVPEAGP
Assay [14] addresses T3, Serine/threonine-protein kinase Nek11 (Homo sapiens) (UniProt Q8NG66).
T3 sequence (whole entry): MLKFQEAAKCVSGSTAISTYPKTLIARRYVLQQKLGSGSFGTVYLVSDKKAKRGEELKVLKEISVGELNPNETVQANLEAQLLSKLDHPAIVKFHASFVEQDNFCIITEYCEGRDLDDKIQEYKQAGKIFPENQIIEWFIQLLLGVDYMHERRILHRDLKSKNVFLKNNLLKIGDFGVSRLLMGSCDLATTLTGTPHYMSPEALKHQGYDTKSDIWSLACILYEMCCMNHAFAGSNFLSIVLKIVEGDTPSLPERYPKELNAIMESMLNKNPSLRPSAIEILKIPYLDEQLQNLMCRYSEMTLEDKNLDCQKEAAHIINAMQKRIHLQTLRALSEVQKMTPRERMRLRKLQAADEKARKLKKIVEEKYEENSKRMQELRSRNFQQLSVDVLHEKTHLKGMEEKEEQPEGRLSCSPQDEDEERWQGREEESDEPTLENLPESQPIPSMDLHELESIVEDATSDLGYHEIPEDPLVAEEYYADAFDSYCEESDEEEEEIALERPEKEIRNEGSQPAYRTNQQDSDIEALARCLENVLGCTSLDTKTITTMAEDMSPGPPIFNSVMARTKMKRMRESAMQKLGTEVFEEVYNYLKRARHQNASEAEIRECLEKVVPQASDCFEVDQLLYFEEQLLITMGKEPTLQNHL
Briefly: Selectivity interaction (ProQinase) EUB0000171b NEK11.

In the next assay the target is Focal adhesion kinase 1 (Homo sapiens, UniProt Q05397). Put plainly: Selectivity interaction (Upstate Kinase Profiler service (Millipore)) EUB0000056c PTK2. The note with it: at 1 µM.
Chain of Focal adhesion kinase 1 (Q05397 2-1052 limits assumed): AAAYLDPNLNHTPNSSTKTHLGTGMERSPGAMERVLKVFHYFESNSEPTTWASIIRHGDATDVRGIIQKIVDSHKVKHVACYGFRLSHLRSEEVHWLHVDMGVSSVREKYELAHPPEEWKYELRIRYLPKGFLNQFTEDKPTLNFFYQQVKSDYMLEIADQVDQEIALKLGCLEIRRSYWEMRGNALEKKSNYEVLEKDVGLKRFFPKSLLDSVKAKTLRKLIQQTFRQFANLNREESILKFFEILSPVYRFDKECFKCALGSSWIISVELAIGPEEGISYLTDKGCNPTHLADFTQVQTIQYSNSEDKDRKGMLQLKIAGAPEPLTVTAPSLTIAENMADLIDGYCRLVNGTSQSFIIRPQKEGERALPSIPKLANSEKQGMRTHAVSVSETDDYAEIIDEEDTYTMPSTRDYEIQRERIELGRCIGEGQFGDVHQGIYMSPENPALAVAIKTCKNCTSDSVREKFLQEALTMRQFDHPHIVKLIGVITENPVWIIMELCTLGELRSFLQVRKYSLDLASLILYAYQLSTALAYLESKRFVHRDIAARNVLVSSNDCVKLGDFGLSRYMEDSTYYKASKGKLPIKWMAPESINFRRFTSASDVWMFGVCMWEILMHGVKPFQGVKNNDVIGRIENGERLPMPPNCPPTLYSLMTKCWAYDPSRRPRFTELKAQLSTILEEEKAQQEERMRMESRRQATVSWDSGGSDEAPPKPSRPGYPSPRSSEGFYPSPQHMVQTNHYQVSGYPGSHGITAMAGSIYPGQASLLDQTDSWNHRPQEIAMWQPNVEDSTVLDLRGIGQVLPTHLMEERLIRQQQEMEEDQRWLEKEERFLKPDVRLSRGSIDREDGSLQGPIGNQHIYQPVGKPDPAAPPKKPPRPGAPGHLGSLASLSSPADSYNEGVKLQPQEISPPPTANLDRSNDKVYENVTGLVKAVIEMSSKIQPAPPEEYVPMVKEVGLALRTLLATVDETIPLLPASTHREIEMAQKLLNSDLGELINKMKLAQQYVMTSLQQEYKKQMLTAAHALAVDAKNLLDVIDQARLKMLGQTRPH

Chain of Serine/threonine-protein kinase N2 (Q16513 whole entry, looked up): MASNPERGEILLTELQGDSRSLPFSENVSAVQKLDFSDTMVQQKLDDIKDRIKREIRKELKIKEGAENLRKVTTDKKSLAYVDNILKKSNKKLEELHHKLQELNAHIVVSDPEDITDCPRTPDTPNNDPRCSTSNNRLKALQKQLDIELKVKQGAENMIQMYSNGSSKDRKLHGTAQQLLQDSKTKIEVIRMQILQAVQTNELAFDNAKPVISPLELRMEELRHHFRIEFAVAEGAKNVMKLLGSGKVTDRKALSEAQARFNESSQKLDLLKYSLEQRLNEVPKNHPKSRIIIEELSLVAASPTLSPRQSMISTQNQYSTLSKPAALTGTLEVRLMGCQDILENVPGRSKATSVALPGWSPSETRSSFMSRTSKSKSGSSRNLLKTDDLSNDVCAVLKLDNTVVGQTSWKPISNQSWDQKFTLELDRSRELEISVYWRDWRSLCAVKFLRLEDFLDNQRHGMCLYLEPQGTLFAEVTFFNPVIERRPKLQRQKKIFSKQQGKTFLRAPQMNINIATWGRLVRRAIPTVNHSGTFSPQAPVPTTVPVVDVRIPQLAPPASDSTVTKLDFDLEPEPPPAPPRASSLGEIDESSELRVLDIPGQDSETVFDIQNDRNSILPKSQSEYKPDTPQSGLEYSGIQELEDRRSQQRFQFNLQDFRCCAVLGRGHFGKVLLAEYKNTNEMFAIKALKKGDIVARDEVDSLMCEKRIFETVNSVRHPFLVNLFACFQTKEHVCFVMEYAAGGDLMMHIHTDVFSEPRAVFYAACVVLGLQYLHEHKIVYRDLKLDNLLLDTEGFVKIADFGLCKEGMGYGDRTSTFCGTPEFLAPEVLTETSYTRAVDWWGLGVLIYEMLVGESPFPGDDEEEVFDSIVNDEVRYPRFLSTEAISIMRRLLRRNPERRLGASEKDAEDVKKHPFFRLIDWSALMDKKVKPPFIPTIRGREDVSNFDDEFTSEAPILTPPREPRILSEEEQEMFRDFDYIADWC
Chain of Epidermal growth factor receptor (Homo sapiens), P00533 [T790M] (P00533 whole entry T790M): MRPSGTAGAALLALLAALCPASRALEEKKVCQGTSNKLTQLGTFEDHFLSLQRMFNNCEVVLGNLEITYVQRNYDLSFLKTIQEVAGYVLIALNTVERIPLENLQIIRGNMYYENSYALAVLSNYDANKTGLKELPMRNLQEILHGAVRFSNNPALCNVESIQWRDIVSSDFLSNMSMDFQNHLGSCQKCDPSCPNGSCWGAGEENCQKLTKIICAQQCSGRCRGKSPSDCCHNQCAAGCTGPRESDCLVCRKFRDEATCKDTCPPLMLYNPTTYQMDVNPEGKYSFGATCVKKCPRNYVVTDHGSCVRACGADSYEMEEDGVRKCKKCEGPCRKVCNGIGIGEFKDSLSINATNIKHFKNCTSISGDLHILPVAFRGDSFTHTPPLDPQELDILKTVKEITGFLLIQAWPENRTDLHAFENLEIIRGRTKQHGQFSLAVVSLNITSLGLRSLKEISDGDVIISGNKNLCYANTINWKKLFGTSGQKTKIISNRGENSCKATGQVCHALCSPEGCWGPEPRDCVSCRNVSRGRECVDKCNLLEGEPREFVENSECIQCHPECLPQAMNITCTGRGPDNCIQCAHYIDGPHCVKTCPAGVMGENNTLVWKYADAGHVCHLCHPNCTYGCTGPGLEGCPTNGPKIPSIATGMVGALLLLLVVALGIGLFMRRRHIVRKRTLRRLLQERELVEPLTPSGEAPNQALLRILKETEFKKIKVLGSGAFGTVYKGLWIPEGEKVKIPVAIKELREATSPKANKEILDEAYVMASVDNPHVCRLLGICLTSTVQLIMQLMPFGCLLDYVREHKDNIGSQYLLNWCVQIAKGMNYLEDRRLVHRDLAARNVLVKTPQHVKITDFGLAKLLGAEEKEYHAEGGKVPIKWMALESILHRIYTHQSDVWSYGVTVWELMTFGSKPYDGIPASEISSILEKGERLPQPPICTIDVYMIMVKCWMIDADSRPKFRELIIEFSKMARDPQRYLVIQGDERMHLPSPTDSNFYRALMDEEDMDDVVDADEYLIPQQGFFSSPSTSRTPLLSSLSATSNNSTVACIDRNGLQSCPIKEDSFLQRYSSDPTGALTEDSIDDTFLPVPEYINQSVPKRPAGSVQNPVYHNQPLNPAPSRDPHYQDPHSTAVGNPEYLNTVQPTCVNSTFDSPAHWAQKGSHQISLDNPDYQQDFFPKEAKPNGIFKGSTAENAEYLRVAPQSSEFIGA
Chain of Calcium/calmodulin-dependent protein kinase kinase 2 (Homo sapiens) (Q96RR4 2-588 limits assumed): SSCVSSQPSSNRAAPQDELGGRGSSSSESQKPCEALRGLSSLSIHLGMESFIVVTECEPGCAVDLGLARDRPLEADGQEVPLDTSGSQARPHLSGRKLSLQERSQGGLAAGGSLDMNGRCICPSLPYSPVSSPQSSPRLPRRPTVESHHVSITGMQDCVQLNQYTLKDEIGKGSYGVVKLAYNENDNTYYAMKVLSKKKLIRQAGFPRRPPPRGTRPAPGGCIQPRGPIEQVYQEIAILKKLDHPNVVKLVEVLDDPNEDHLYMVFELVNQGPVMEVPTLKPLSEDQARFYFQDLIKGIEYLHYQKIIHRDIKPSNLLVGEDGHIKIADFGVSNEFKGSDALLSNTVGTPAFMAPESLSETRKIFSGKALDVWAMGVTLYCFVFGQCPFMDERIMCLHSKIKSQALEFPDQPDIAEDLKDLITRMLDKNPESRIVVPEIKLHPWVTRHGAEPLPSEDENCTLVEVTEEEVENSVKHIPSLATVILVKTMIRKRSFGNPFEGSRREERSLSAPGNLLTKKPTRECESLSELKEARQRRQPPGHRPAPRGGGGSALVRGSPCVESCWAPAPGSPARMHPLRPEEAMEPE

For `CNC(=O)Nc1ccc(-c2nc(N3CC4CCC(C3)O4)c3cnn(C4CCC5(CC4)OCCO5)c3n2)cc1`, the % of inhibition in [1] was 1%; in assay [2] it was -1%; in assay [3], 2%; in [4], 3%.

On to `Cc1cc([C@@H](C)Nc2ccccc2C(=O)O)c2nc(N3CCOCC3)cc(=O)n2c1` [AZD-6482], for which the % of control in assay [5] turned out to be 84%; in [6], 98%.

`COc1cc(N(C)c2ccnc3ccc(C(F)(F)F)cc23)cc(OC)c1OC` yielded a % binding in assay [7] of 85%.

Regarding `Nc1cnc(N2CCc3cc(S(=O)(=O)Nc4c(F)cc(Cl)cc4F)cc(N4CCCC4=O)c32)nc1` [TP-020n], the % of control in [8] turned out to be 100%; in [9], 83%.

Take `N#Cc1cccc(-c2c[nH]c3ncnc(N4CCOCC4)c23)c1`: the % of inhibition is -1% in assay [10] and 24% in assay [11].

As for `CCN(CC)CCCCNc1ncc2cc(-c3cc(OC)cc(OC)c3)c(NC(=O)NC(C)(C)C)nc2n1`, the % of control in assay [12] was determined as 100%.

`Cc1cc(F)c(C(=O)Nc2cccc(-c3nncn3C(C)C)n2)cc1-n1cnc(C2CC2)c1`: the % of control in assay [13] came out at 79%.

Regarding `C=CC(=O)Nc1cccc(C(=O)Nc2ccc(Nc3cc(-c4[nH]c(SC)nc4C)ccn3)cc2)c1`, the % of control in assay [14] (at 1 µM) came to 103%; in assay [14] (at 5 µM) it was 87%.

As for `Cc1ccc(-c2ccc3c(ccc4sc5c(c43)NC[C@@H](C)NC5=O)n2)cn1`, the % of inhibition on Focal adhesion kinase 1 is -2%.

Values taken from ChEMBL document CHEMBL5465560, “Selectivity Literature for EUbOPEN Chemogenomic Library” (2024).
